# Assay results published in US6716829B2, “Aldosterone antagonist and cyclooxygenase-2 inhibitor combination therapy to prevent or treat inflammation-related cardiovascular disorders” (Pharmacia Corporation, priority 2000, dated 2004).
# Where “and” joins values, the source holds several entries; their conditions need not be identical. Equal values may be shown once.
# What was measured:
# [1] = test system: coronary arteries of angiotensin II/salt-treated animals; assay: Assay A: heart histology (hematoxylin&eosin), vascular inflammatory lesions and myocardial injury; format: in vivo, Male Wistar rats; conditions: eplerenone 100 mpk; for Vascular inflammation and myocardial injury in the heart: angiotensin II infused rats, aldosterone replacement in adrenalectomized rats
# Description: Sacrifice by exanguination after 4 weeks. Blood was be collected in dry tubes for determination of serum electrolytes and in EDTA-containing tubes for measurement of aldosterone and corticosterone levels Hearts were stained with hematoxylin&eosin and have been analyzed for determination of morphologic abnormalities (i.e. necrosis, vascular injury).
# [2] = test system: Atrial natriuretic factor (ANP); assay: Assay C: ANP mRNA in left ventricle by TaqMan RT-PCR; format: in vivo, Male Sprague-Dawley rats; conditions: for ANP mRNA: arbitrary units relative to cyclophilin expression; for ANP mRNA (AU): mean ± SEM after 30 days of treatment, eplerenone dose 100 mg/kg/day, relative to cyclophilin expression
# Experimental: The procedure of Assay B was expanded upon in a further study. […] Myocardial tissue from animals in each treatment group was examined after 7, 14, or 30 days of treatment.
# Potassium chloride supplementation was added to the saline solution in order to prevent the potential hypokalemia associated with aldosterone excess.
# At the time of the surgery, an Alzet 2002 osmotic minipump (Alza Corp., Palo Alto, Calif.) containing either vehicle (9% ethanol/87% propylene glycol/4% dH2O) or 1.0 mg/mL d-aldosterone (Sigma Chemical, St. Louis, Mo.) was inserted subcutaneously at the nape of the neck. Aldosterone was administered at a dose of 0.75 µg/hour. […] Animals were sacrificed from each group (n=8-13) after 7, 14, or 30 days of treatment.
# Following exsanguination, hearts and kidneys were isolated, removed, rinsed in cold phosphate-buffered saline, and blotted dry. Kidneys were immediately bifurcated through the long axis with a razor blade and placed in 10% neutral buffered formalin (NBF, Richard-Allen Scientific, Kalamazoo, Mich.). For the hearts, the right ventricle (RV) was cut away from the left ventricle (LV), both ventricles were weighed using a Mettler AE163 balance (Mettler-Toledo, Inc., Hightstown, N.J.), and the RV was placed in 10% NBF. A 2 mm coronal slab of the LV apex was removed and frozen with dry ice/isopentane for analysis of gene expression and the remaining portion of the LV was placed in 10% NBF for fixation. Final wet trimming was completed after 3-4 days fixation where a second 2 mm coronal slab was removed for hydroxyproline analysis and a third 2 mm slab was removed from the equatorial region for histology.
# The fluorogenic 5′-nuclease assay (TaqMan PCR) using Applied Biosystems' 7700 Sequence Detection System (Applied Biosystems, Foster City, Calif.) allowed for real time detection/quantitation of a specific gene by monitoring the increase in fluorescence of a gene-specific, dye-labeled oligonucleotide probe. Probes for target and reference genes were labeled at the 5′-end with a 6-carboxyfluorescein (6FAM) reporter dye and at the 3′-end with a 6-carboxy-N,N,N′,N′-tetramethylrhodamine (TAMRA) quencher dye. When the probe was annealed to the target gene, fluorescence of 6FAM was prevented by the close proximity of TAMRA. The exonuclease activity of Taq polymerase released the dyes from the oligonucleotide probe by displacing the probe from the target sequence resulting in fluorescence excitation in direct proportion to the amount of target message present. Data analysis was performed using the Sequence Detection System software from Applied Biosystems.
# Primers and probes were designed using Oligo Primer Analysis Software, Version 5.0 (National Biosciences Inc. (NBI)-Wojciech Rychlik, Cascade, Colo.). Primers were synthesized by Life Technologies (Grand Island, N.Y.) and probes were synthesized by Applied Biosystems. Primer/probe sets were designed from known sequences of rat genes to be analyzed. All target gene values were normalized to a reference gene, constitutively expressed cyclophilin. Primer/probe sets sequences can be found in Table 8
# RNA was extracted from frozen (−70° C.) left ventricle (LV) tissue (approximately 10-20 mg) using 1.5 mL RNA-STAT 60 according to manufacturer's instructions (Leedo Medical Laboratories, Inc., Houston, Tex.). Briefly, tissues were homogenized using a tissue homogenizer equipped with a 5 mm probe (Ultra-Turrax T8 Homogenizer, IKA Works, Inc. Wilmington, N.C.). Following homogenization, an equal volume of molecular grade chloroform (Sigma Chemical Co., St. Louis, Mo.) was incubated with periodic mixing for 10 min at room temperature. Samples were centrifuged at 12,000 g for 10 min and RNA was precipitated from the top layer by adding an equal volume of molecular grade isopropanol (Sigma Chemical Co.) followed by an overnight incubation at −80° C.
# interstitial collagen = assay: Assay C: image analysis of interstitial collagen (Picrosirius Red), collagen volume fraction; format: in vivo, Male Sprague-Dawley rats; conditions: for ICVF (%): interstitial collagen volume fraction, eplerenone dose 100 mg/kg/day
# Experimental: The procedure of Assay B was expanded upon in a further study. […] Myocardial tissue from animals in each treatment group was examined after 7, 14, or 30 days of treatment. […] Lesions were preceded by the expression and progressive upregulation of proinflammatory molecules. […] Prior to surgery the animals were individually weighed and placed in one of the following groups: […] Potassium chloride supplementation was added to the saline solution in order to prevent the potential hypokalemia associated with aldosterone excess. […] Louis, Mo.) was inserted subcutaneously at the nape of the neck. Aldosterone was administered at a dose of 0.75 µg/hour. […] Animals were sacrificed from each group (n=8-13) after 7, 14, or 30 days of treatment. The equatorial regions of the heart were routinely processed into paraffin with an automated tissue processor (Hypercenter XP, Shandon/Lipshaw Inc., Pittsburgh, Pa.) and embedded into fresh paraffin apical side down (Shandon Embedding Center, Shandon/Lipshaw Inc.). Five and 10 µm sections were cut from each block of tissue using a Leica RM2035 rotary microtome (Leica Inc., Houston, Tex.) and mounted on Superfrost/Plus microscope slides (Fisher Scientific, Pittsburgh, Pa.). Ten […]m sections were stained with the collagen specific stain, Picrosirius Red F3BA (Saturated Picric Acid (Sigma Chemical, St. […] Waterbury, Conn.) (6). Mounted tissues were hydrated with water. […] Slides were coverslipped with #1 cover glass using Permount Histological Mounting Media (Fisher Scientific). Two slides mounted with 5 µm sections were cut for each animal. One slide was processed for H&E staining and one for Periodic Acid Schiff (PAS) staining. The H&E and PAS were used for pathological scoring of the hearts. Picrosirius Red F3BA stained slides were used to quantify interstitial collagen with a Videometric 150 Image Analysis System (Oncor Inc., Gaitherburg, Md.). […] Garden City, N.Y.) attached to a Nikon Optiphot microscope (Nikon Inc.). A Toshiba 3 CCD Color Video Camera (Model#[…] Corp. Japan) relayed the images in RGB format from the microscope to a 386 computer with a […] video board. The […] video board/[…] software application (Oncor Inc.) converted RGB images to HIS (Hue, Intensity, Saturation) format for display and analysis on a Sony Trinitron Color Video Monitor (Model#PVM-1342Q, Sony Corp, Tokyo, Japan) at a magnification of 305×. […] The […] application then measured only pixels which fell into thresholding limits. The system was calibrated with a micrometer scale (EM Sciences, FT. Washington, Pa. 19034), which allowed data to be expressed in mm^2 or […]m^2.
# [3] = mean ± SEM after 7 days of treatment, eplerenone 100 mg/kg/day
# [4] = mean ± SEM after 14 days of treatment, eplerenone 100 mg/kg/day
# [5] = group mean, data used for Table 15 (14 days of treatment)
# [6] = group mean, data used for Table 16 (30 days of treatment)
# [7] = mean ± SEM after 7 days of treatment
# [8] = mean ± SEM after 14 days of treatment
# [9] = mean ± SEM after 30 days of treatment
SMILES,Vascular inflammation and myocardial injury in the heart [1],"ANP mRNA [2, 3] [AU]","ANP mRNA [2, 4] [AU]",ANP mRNA (AU) [2] [AU],Collagen Volume Fraction (%) (interstitial collagen; [5]),Collagen Volume Fraction (%) (interstitial collagen; [6]),ICVF (%) (interstitial collagen; [7]),ICVF (%) (interstitial collagen; [8]),ICVF (%) (interstitial collagen; [9]),also measured
C[C@]12CCC(=O)C=C1CC[C@@H]1[C@@H]2[C@@H](O)C[C@]2(C=O)[C@@H](C(=O)CO)CC[C@@H]12 [Aldosterone],restored the severe coronary and myocardial inflammation and injury,8.72 ± 1.51,6.70 ± 1.59,20.17 ± 3.36,5.1,7.9,5.6 ± 0.6,5.1 ±0.5,7.9 ± 1.0,"ANP ([2]; 14-day protocol, mRNA, individual rats and group Mean, listed as Aldosterone + salt): 4.58 AU and 7.75 AU and 7.34 AU and 4.18 AU and 1.59 AU and 17.81 AU and 6.48 AU and 8.08 AU and 2.51 AU; ANP ([2]; 14-day protocol, mRNA, individual rats and group Mean, listed as Aldosterone + salt, mean): 6.70 AU; ANP ([2]; 30-day protocol, mRNA, individual rats and group Mean, listed as Aldosterone + salt): 23.59 AU and 43.11 AU and 14.83 AU (2×) and 18.90 AU and 23.43 AU and 15.14 AU and 6.77 AU and 20.97 AU; ANP ([2]; 30-day protocol, mRNA, individual rats and group Mean, listed as Aldosterone + salt, group mean): 20.17 AU; ANP mRNA levels ([2]; aldosterone + salt vs vehicle + salt (Tables 11-13)): Significant elevations; Collagen Volume Fraction (%) (interstitial collagen; individual rats, data used for Table 15 (14 days of treatment), incl. rat marked * excluded from statistics, listed as Aldosterone + salt): 4.4% and 5.4% and 3.2% (2×) and 5.9% (2×) and 4.6% (2×) and 3.9% and 4.8% and 3.4% and 6.4% and 9.0%; Collagen Volume Fraction (%) (interstitial collagen; individual rats, data used for Table 16 (30 days of treatment), incl. rat marked * excluded from statistics, listed as Aldosterone + salt): 6.6% and 8.8% and 7.2% (2×) and 7.1% and 9.3% and 6.8% and 4.0% and 14.5%"
COC(=O)[C@@H]1CC2=CC(=O)CC[C@]2(C)[C@@]23O[C@@H]2C[C@@]2(C)[C@@H](CC[C@@]24CCC(=O)O4)[C@H]13 [Eplerenone],prevention,2.77 ± 0.49,6.64 ± 2.22,9.20 ± 2.44,4.5,6.2,5.4 ± 0.6,4.5 ± 0.3,6.2 ± 0.5,"Animals with vascular inflammatory changes (lesions) in the coronary arteries ([1]; of ten animals per group, angiotensin II/salt, 4 weeks): one of the ten; ANP ([2]; 14-day protocol, mRNA, individual rats and group Mean, listed as Eplerenone + aldosterone + salt): 2.84 AU and 3.22 AU and 6.39 AU and 4.04 AU and 25.90 AU and 5.52 AU and 3.57 AU and 2.29 AU and 8.37 AU and 4.24 AU; ANP ([2]; 14-day protocol, mRNA, individual rats and group Mean, listed as Eplerenone + aldosterone + salt, mean): 6.64 AU; ANP mRNA upregulation ([2]; after 14 days of treatment, eplerenone 100 mg/kg/day): not after 14 days; ANP mRNA upregulation ([2]; after 30 days of treatment, eplerenone 100 mg/kg/day): significantly reduced; ANP ([2]; individual rats and group mean, 7 days of treatment, mRNA relative to cyclophilin, aldosterone + salt, eplerenone 100 mg/kg/day): 1.26 AU and 1.81 AU and 0.59 AU and 2.58 AU and 4.48 AU and 4.98 AU and 3.82 AU and 3.59 AU and 0.95 AU and 3.67 AU; ANP ([2]; individual rats and group mean, 7 days of treatment, mRNA relative to cyclophilin, aldosterone + salt, eplerenone 100 mg/kg/day, group mean): 2.77 AU; Collagen Volume Fraction (%) (interstitial collagen; individual rats, data used for Table 15 (14 days of treatment), incl. rat marked * excluded from statistics, listed as Eplerenone + aldosterone + salt): 4.1% and 6.2% and 3.9% and 3.7% (2×) and 4.2% and 3.5% and 3.3% and 5.2% and 5.6% and 6.0%; Collagen Volume Fraction (%) (interstitial collagen; individual rats, data used for Table 16 (30 days of treatment), incl. rat marked * excluded from statistics, listed as Eplerenone + aldosterone + salt): 3.4% and 5.0% and 6.5% and 7.9% and 7.1% and 6.3% and 6.1% and 5.4% and 7.8% and 4.4%"
